Experimental data published in patent US7829665B2 (priority 2005, dated 2010).

What follows are compounds tested against T1, full-length NS3/NS4A-2 (HCV NS3 protease) (Hepatitis C virus genotype 1a, UniProt P27958) (assay: NS3-NS4 protease assay / NS3 inhibition assay (RETS1 substrate, fluorescence kinetic read)). Conditions: not given.
T1 construct: Recombinant E. coli or Baculovirus full-length NS3 was diluted to 3.33 μM with assay buffer; made in house; host or cells: E. coli or baculovirus (BV) expression system
Type: biochemical
How it was run: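 Ki values come from IC50 fits corrected via Ki=IC50/(1+[S]/Km), with Km 2.03 μM for E. coli and 1.74 μM for baculovirus full-length NS3. Enzyme (2 or 3 nM NS3, respectively, complexed with NS4A-2) sat with compound, top concentration 50 microM, for 10 min at room temperature. Cleavage of RETS1 (8 μM working solution) was then followed by fluorescence (335/495 nm) over 30 min.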

T1 sequence (P27958 1027-1657): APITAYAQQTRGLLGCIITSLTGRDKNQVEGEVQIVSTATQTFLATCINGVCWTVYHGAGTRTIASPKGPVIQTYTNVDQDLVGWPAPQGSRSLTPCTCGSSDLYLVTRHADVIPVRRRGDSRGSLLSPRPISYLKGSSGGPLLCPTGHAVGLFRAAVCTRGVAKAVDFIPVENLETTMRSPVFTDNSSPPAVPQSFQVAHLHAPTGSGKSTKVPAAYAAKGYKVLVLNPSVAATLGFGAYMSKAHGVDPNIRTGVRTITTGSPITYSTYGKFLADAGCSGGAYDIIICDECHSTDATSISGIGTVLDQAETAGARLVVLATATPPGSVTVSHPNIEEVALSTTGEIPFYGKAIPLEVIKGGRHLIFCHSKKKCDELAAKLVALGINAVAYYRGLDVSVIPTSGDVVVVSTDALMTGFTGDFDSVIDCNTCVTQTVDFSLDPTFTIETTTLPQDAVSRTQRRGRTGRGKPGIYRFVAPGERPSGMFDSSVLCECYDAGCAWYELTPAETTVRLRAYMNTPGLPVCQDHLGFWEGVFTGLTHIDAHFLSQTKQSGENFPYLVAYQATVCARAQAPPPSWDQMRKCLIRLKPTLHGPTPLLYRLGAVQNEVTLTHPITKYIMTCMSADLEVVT

Compound | IC50 [µM]
CC(C)(C)OC(=O)N[C@H]1CCC(O)CC/C=C\[C@@H]2C[C@@]2(C(=O)NS(=O)(=O)C2CC2)NC(=O)[C@@H]2C[C@@H](OC(=O)N3Cc4cccc(F)c4C3)CN2C1=O (stereo partly shown) [Compound 1018] | < 0.1

Same assay, conditions: Table 22; read-out: NS3-NS4 IC50

Compound | IC50 [µM]
CC(C)(C)OC(=O)NC1CCCCCC=CC2CC2(C(=O)NCc2cccc(Cl)c2)NC(=O)C2CCCN2C1=O (stereo not shown) [Compound 2309] | < 1
CC(C)(C)OC(=O)N[C@H]1CCCCC/C=C\[C@@H]2C[C@@]2(C(=O)NC2CC2)NC(=O)[C@@H]2CCCN2C1=O [Compound 2318] | < 1
CC(C)(C)OC(=O)N[C@H]1CCCCC/C=C\[C@@H]2C[C@@]2(C(=O)NCCc2ccccc2)NC(=O)[C@@H]2CCCN2C1=O [Compound 2320] | < 0.1

Same assay, conditions: recombinant E. coli or Baculovirus full-length NS3 with NS4A-2; read-out: NS3-NS4 IC50

Compound | IC50 [µM]
CCOC(=O)[C@@]12C[C@H]1/C=C\CCCCC[C@H](NC(=O)OC(C)(C)C)C(=O)N1C[C@H](OC(=O)N3Cc4ccc(OCCNC(C)C)cc4C3)C[C@H]1C(=O)N2 [Compound 125] | < 10
Cc1ccc([S@+]([O-])NC(=O)[C@@]23C[C@H]2/C=C\CCCCC[C@H](NC(=O)OC(C)(C)C)C(=O)N2CCC[C@H]2C(=O)N3)cc1 [Compound 2402] | < 0.1
CC(C)(C)OC(=O)N[C@H]1CCCCC/C=C\[C@@H]2C[C@@]2(CNS(=O)(=O)C2CC2)NC(=O)[C@@H]2C[C@@H](OC(=O)N3Cc4cccc(F)c4C3)CN2C1=O [Compound 154] | < 10
CC(C)(C)OC(=O)NC1CCCCCCCC=CC2CC2(C(=O)NS(=O)(=O)C(F)(F)F)NC(=O)C2CCCN2C1=O (stereo not shown) [Compound 2107] | < 1
CC(C)(C)OC(=O)N[C@H]1CCCCC/C=C\[C@@H]2C[C@@]2(C(=O)NS(=O)(=O)Cc2ccccc2Cl)NC(=O)[C@@H]2CCCN2C1=O [Compound 2117] | < 1
CC(C)(C)OC(=O)N[C@H]1CCCCC/C=C\[C@@H]2C[C@@]2(C(=O)NS(=O)(=O)C2(Cc3ccccc3)CC2)NC(=O)[C@@H]2CCCN2C1=O [Compound 301] | < 10
O=C(N[C@H]1CCCCC/C=C\[C@@H]2C[C@@]2(C(=O)NS(=O)(=O)Nc2ccc(Cl)cc2)NC(=O)[C@@H]2CCCN2C1=O)C1CCC1 [Compound 427] | > 10
CN(C)c1ccc(NS(=O)(=O)NC(=O)[C@@]23C[C@H]2/C=C\CCCCC[C@H](NC(=O)OC(C)(C)C)C(=O)N2CCC[C@H]2C(=O)N3)cc1 [Compound 2231] | < 10
CS(=O)(=O)NC(=O)[C@@]12C[C@H]1/C=C\CCCCC[C@H](NC(=O)OC1CCCC1)C(=O)N1Cc3ccc(Oc4cccc(Cl)c4)cc3CC1C(=O)N2 (stereo partly drawn) [Compound 2003, Cyclopentyl (1aS,9S,19aR,Z)-15-(3-chlorophenoxy)-19a-(methylsulfonylcarbamoyl)-10,18-dioxo-1a,4,5,6,7,8,9,10,12,17,17a,18,19,19a-tetradecahydro-1H-11,14-diaza-bicyclo[13.1.0]hexadeca-1(15), 2-dieno[11,12-b]isoquinolin-9-ylcarbamate] | < 10
CC(C)(C)OC(=O)N[C@H]1CCCCC/C=C\[C@@H]2C[C@@]2(C(=O)NS(=O)(=O)C2(C)CC2)NC(=O)[C@@H]2CCCN2C1=O [Compound 300, (1S,4R,6S,14S) tert-butyl 4-Cyclopropanesulfonylaminocarbonyl-2,15-dioxo-3,16-diaza-tricyclo[14.3.0.0^4,6]nonadec-7-ene-14-yl carbamate] | < 1
CCOC(=O)[C@@]12C[C@H]1/C=C\CCCCC[C@H](NC(=O)OC(C)(C)C)C(=O)N1C[C@H](OC(=O)N3Cc4ccc(OCCN(C)C)cc4C3)C[C@H]1C(=O)N2 [Compound 127] | < 10
CN(c1ccc(Cl)cc1)S(=O)(=O)NC(=O)[C@@]12C[C@H]1/C=C\CCCCC[C@H](NC(=O)OC(C)(C)C)C(=O)N1CCC[C@H]1C(=O)N2 [Compound 2226] | < 10
O=C(N[C@H]1CCCCC/C=C\[C@@H]2C[C@@]2(C(=O)NS(=O)(=O)C2CC2)NC(=O)[C@@H]2CCCN2C1=O)OC1CCCC1 [Compound 312] | < 1
CC(C)(C)OC(=O)N[C@H]1CCCCC/C=C\[C@@H]2C[C@@]2(C(=O)NS(=O)(=O)OCCc2ccccc2)NC(=O)[C@@H]2CCCN2C1=O [Compound 801] | < 10
CC(C)(C)OC(=O)N[C@H]1CCCCC/C=C\[C@@H]2C[C@@]2(C(=O)NS(=O)(=O)NCCc2ccccn2)NC(=O)[C@@H]2CCCN2C1=O [Compound 423] | < 10
CCOC(=O)[C@@]12C[C@H]1/C=C\CCCCC[C@H](N)C(=O)N1C[C@H](OC(=O)N3Cc4ccc(OCCNC(C)C)cc4C3)C[C@H]1C(=O)N2 [Compound 128] | > 10
CN(c1ccccc1)S(=O)(=O)NC(=O)[C@@]12C[C@H]1/C=C\CCCCC[C@H](NC(=O)OC(C)(C)C)C(=O)N1CCC[C@H]1C(=O)N2 [Compound 2227] | < 10
Cc1noc(C)c1S(=O)(=O)NC(=O)[C@@]12C[C@H]1/C=C\CCCCC[C@H](NC(=O)OC1CCCC1)C(=O)N1C[C@H](OC(=O)N3CCc4ccccc4C3)C[C@H]1C(=O)N2 [Compound 187] | < 0.1
CC(C)(C)OC(=O)N[C@H]1CCCCC/C=C\[C@@H]2C[C@@]2(C(=O)NS(=O)(=O)c2cccc(Br)c2)NC(=O)[C@@H]2CCCN2C1=O [Compound 2112] | < 10
COC(=O)c1csc(S(=O)(=O)NC(=O)[C@@]23C[C@H]2/C=C\CCCCC[C@H](NC(=O)OC(C)(C)C)C(=O)N2CCC[C@H]2C(=O)N3)c1OC [Compound 310] | > 10
COc1ccccc1S(=O)(=O)NC(=O)[C@@]12C[C@H]1/C=C\CCCCC[C@H](NC(=O)OC(C)(C)C)C(=O)N1CCC[C@H]1C(=O)N2 [Compound 2122] | < 1
CC(C)C[C@@H]1C[C@H]2C(=O)N[C@]3(C(=O)NS(=O)(=O)C4CC4)C[C@H]3/C=C\CCCCC[C@H](NC(=O)OC(C)(C)C)C(=O)N2C1 [Compound 2147, (1S,4R,6S,14S,18R)-tert-Butyl 4-cyclopropylsulfonylaminocarbonyl-2,15-dioxo-3,16-diaza-18-(2-methylpropyl)-tricyclo[14.3.0.0^4,6]nonadec-7-ene-14-yl carbamate] | > 10
CC(C)(C)OC(=O)N[C@H]1CCCCC/C=C\[C@@H]2C[C@@]2(C(=O)N[S@+]([O-])C(C)(C)C)NC(=O)[C@@H]2CCCN2C1=O [Compound 2404] | < 1
CC(C)(C)OC(=O)N[C@H]1CCCCC/C=C\[C@@H]2C[C@@]2(C(=O)NS(=O)(=O)Nc2ccc(F)cc2)NC(=O)[C@@H]2CCCN2C1=O [Compound 2237] | < 1
CC1CCCN1S(=O)(=O)NC(=O)[C@@]12C[C@H]1/C=C\CCCCC[C@H](NC(=O)OC(C)(C)C)C(=O)N1CCC[C@H]1C(=O)N2 (stereo partly shown) [Compound 2250] | < 10
COc1ccc(CCNS(=O)(=O)NC(=O)[C@@]23C[C@H]2/C=C\CCCCC[C@H](NC(=O)OC(C)(C)C)C(=O)N2CCC[C@H]2C(=O)N3)cc1 [Compound 413] | > 10
CC(C)(C)OC(=O)N[C@H]1CCCCC/C=C\[C@@H]2C[C@@]2(C(=O)NS(=O)(=O)c2cnc(Cl)c(Br)c2)NC(=O)[C@@H]2CCCN2C1=O [Compound 2154] | < 10
CC(C)(C)OC(=O)N[C@H]1CCCCC/C=C\[C@@H]2C[C@@]2(C(=O)NS(=O)(=O)NC2CC2)NC(=O)[C@@H]2CCCN2C1=O [Compound 2201] | < 1
CCOC(=O)[C@@]12C[C@H]1/C=C\CCCCC[C@H](NC(=O)OC1CCCC1)C(=O)N1C[C@H](OC(=O)N3Cc4ccc(OCCN5CCOCC5)cc4C3)C[C@H]1C(=O)N2 [Compound 129] | < 10
CC(C)(C)OC(=O)NC1CCCCCCCC=CC2CC2(C(=O)NS(=O)(=O)c2ccccc2)NC(=O)C2CCCN2C1=O (stereo not shown) [Compound 2101] | < 10
